For one assay, the target named is Substance P (Cavia porcellus, UniProt P67932).
The target of another assay is T1, Substance-K receptor (Cavia porcellus, UniProt Q64077).
T1 sequence (Q64077 whole entry): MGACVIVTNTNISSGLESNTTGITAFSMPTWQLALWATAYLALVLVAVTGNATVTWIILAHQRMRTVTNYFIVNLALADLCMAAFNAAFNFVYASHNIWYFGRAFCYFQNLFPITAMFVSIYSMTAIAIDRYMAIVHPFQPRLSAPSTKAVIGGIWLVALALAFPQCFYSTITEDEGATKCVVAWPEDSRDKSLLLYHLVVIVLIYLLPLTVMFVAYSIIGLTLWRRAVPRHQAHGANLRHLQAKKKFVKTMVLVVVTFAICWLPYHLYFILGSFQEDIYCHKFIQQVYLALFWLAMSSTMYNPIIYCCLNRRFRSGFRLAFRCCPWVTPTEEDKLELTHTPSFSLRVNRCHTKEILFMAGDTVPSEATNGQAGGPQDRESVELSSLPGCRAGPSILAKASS

The target in the next assay is T2, ATP synthase subunit a (Rattus norvegicus, UniProt P05504).
T2 sequence (P05504 whole entry): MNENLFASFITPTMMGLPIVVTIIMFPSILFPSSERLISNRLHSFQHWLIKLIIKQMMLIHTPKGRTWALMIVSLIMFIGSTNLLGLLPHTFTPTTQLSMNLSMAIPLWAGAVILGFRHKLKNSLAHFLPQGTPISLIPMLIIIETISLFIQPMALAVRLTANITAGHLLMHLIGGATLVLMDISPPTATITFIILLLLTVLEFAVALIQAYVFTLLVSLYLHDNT

The target of a further assay is Eledoisin (Eledone moschata, UniProt P62934).
Assay [1] concerns the target Class E basic helix-loop-helix protein 22 (Mus musculus, UniProt Q8C6A8).
Assay [2] has as its target T3, Protachykinin-1 (Rattus norvegicus, UniProt P06767).
T3 sequence (P06767 whole entry): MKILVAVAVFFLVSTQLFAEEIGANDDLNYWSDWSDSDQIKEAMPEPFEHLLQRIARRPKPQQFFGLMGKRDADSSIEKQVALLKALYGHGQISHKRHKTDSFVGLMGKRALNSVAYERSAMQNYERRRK

The target of assay [3] is T4, Protachykinin-1 (Mus musculus, UniProt P41539).
T4 sequence (P41539 whole entry): T3 sequence (P06767 whole entry) with G23D, I77V

Changes are numbered by the printed parent chain. “And” between values parts separate entries of the source, which are not always exact repeats. Equal values may be shown once. Residues, ends and D or L forms follow the SMILES beside them.

A word on the Ki: it is the equilibrium dissociation constant of an inhibitor or competing ligand from its target. A higher Ki goes with a looser hold on the target.

Class E basic helix-loop-helix protein 22, sequence (Q8C6A8 whole entry): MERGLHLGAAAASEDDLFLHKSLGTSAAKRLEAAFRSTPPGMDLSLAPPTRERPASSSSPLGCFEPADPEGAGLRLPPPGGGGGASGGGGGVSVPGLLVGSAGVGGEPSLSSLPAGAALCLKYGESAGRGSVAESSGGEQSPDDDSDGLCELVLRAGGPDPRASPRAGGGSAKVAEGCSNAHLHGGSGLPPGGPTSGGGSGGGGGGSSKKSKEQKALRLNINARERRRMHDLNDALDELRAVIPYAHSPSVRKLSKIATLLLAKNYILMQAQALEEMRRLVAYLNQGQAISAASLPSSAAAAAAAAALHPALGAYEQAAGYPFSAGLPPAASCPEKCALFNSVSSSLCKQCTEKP

Consider `CSCC[C@H](NC(=O)[C@H](CC(C)C)NC(=O)CNC(=O)[C@H](Cc1ccccc1)NC(=O)[C@H](Cc1ccccc1)NC(=O)[C@H](CCC(N)=O)NC(=O)[C@H](CCC(N)=O)NC(=O)[C@@H]1CCCN1C(=O)[C@H](CCCCN)NC(=O)[C@@H]1CCCN1C(=O)[C@@H](N)CCCN=C(N)N)C(N)=O` [Arg-Pro-Lys-Pro-Gln-Gln-Phe-Phe-Gly-Leu-Met NH2], for which the inhibition constant (Ki) at Substance P is 0.2 nM; at Substance-K receptor, 200 nM; on ATP synthase subunit a, 106 nM and 21 nM; at Eledoisin, 19 nM; in assay [1], 47 nM.

For `CSCC[C@H](NC(=O)[C@H](CC(C)C)NC(=O)CNC(=O)[C@@H](NC(=O)[C@H](Cc1ccccc1)NC(=O)[C@H](CO)NC(=O)[C@H](CC(=O)O)NC(=O)[C@@H](NC(=O)[C@H](CCCCN)NC(=O)[C@@H](N)Cc1cnc[nH]1)[C@@H](C)O)C(C)C)C(N)=O` [Neurokinin alpha], the Ki at Substance P was 8 nM; on Substance-K receptor, 1.3 nM; at Eledoisin it was 10 nM; in assay [1], 0.5 nM; on Protachykinin-1 [2], 1.3 nM and 4.6 nM; at Protachykinin-1 [3] it was 1 nM and 4 nM.

In the case of H-DVPKSDQFVGLM-NH2 [CAS_45749], the Ki at Substance P was 9 nM; at Substance-K receptor, 11 nM; at ATP synthase subunit a, 4.1 nM and 1.9 nM; on Eledoisin, 2.6 nM; in assay [1], 0.5 nM; at Protachykinin-1 [2] it was 6 nM and 9 nM. The compound further displayed a Ki at Protachykinin-1 [3] of 7 nM.

Regarding `CSCC[C@H](NC(=O)[C@H](CC(C)C)NC(=O)CNC(=O)[C@@H](NC(=O)[C@H](Cc1ccccc1)NC(=O)[C@H](Cc1ccccc1)NC(=O)[C@H](CC(=O)O)NC(=O)[C@H](Cc1c[nH]cn1)NC(=O)[C@H](CCSC)NC(=O)[C@@H](N)CC(=O)O)C(C)C)C(N)=O` [NSC_5311312], the Ki is 35 nM on Substance P; 200 nM on Substance-K receptor; 4.7 nM and 6 nM at ATP synthase subunit a; 17 nM on Eledoisin; 10 nM in assay [1]; 50 nM and 56 nM at Protachykinin-1 [2]. For the same compound, the inhibition constant Ki on Protachykinin-1 [3] is 20 nM and 80 nM.

In the case of `CSCC[C@H](NC(=O)[C@H](CC(C)C)NC(=O)CNC(=O)[C@H](Cc1ccc(O)cc1)NC(=O)[C@H](Cc1ccccc1)NC(=O)[C@H](CCCCN)NC(=O)[C@H](CC(N)=O)NC(=O)[C@@H]1CCCN1C(=O)[C@H](CC(=O)O)NC(=O)[C@H](C)NC(=O)[C@@H]1CCC(=O)N1)C(N)=O` [physalaemin] (HELM PEPTIDE1{[Glp].A.D.P.N.K.F.Y.G.L.M.[am]}$$$$V2.0), the inhibitory constant (Ki) on Substance P is 0.7 nM; on Substance-K receptor, 340 nM; on ATP synthase subunit a, 23 nM and 30 nM; on Eledoisin it was 14 nM; in assay [1] it was 17 nM; at Protachykinin-1 [3], 175 nM.

As to `CC[C@H](C)[C@H](NC(=O)[C@H](Cc1ccccc1)NC(=O)[C@H](C)NC(=O)[C@H](CC(=O)O)NC(=O)[C@H](CCCCN)NC(=O)[C@H](CO)NC(=O)[C@@H]1CCCN1C(=O)[C@@H]1CCC(=O)N1)C(=O)NCC(=O)N[C@@H](CC(C)C)C(=O)N[C@@H](CCSC)C(N)=O` (HELM PEPTIDE1{[Glp].P.S.K.D.A.F.I.G.L.M.[am]}$$$$V2.0), the Ki on Substance P is 9 nM; at Substance-K receptor, 15 nM; on ATP synthase subunit a it was 4.2 nM and 3 nM; on Eledoisin, 2.2 nM; on Protachykinin-1 [2], 16 nM and 9 nM; at Protachykinin-1 [3], 9 nM and 5 nM.

The values above are taken from BindingDB's records for PubMed 2419545 (National Institutes of Health, 1986).
